For series [1], the system named is Bacillus subtilis. Put plainly: Antibacterial activity against Bacillus subtilis ATCC 9372 incubated for 24 hrs by CLSI protocol based broth microdilution method. The class given is functional. The note with it: ATCC 9372, 24 h. Background: In broth dilution the organism is exposed to a series of concentrations in liquid medium.
Series [2] relates to Staphylococcus aureus. Put plainly: Bactericidal activity against Staphylococcus aureus ATCC 43300 assessed as 3 log reduction in number of colony forming units incubated for 24 hrs followed by aliquots transfer to tryptic soy agar and grown for 24 hrs. In kind it is functional. The note with it: ATCC 43300, 24 h.
For series [3], the system named is Staphylococcus aureus. In words: Bactericidal activity against methicillin-resistant Staphylococcus aureus ATCC 43300 assessed as log reduction in viable bacterial count at 2 ug/ml incubated for 24 hrs by time-kill curve assay. The class given is functional.
Series [4] has as its system Staphylococcus aureus. In words: Antibacterial activity against methicillin-resistant Staphylococcus aureus ATCC 43300 incubated for 24 hrs by CLSI protocol based broth microdilution method. The class given is functional. The note with it: ATCC 43300, 24 h.
The subject of series [5] is Staphylococcus aureus. Put plainly: Bactericidal activity against penicillin-resistant Staphylococcus aureus clinical isolate assessed as 3 log reduction in number of colony forming units incubated for 24 hrs followed by aliquots transfer to tryptic soy agar and grown for 24 hrs. The class given is functional.
Series [6] relates to Pseudomonas aeruginosa. In words: Antibacterial activity against Pseudomonas aeruginosa ATCC 27853 incubated for 24 hrs by CLSI protocol based broth microdilution method. The class given is functional. The note with it: ATCC 27853, 24 h.
Series [7] concerns Staphylococcus aureus. Put plainly: Antibacterial activity against penicillin-resistant Staphylococcus aureus clinical isolate incubated for 24 hrs by CLSI protocol based broth microdilution method. The class given is functional.
Series [8] concerns Staphylococcus aureus. In words: Antibacterial activity against Staphylococcus aureus ATCC 25923 incubated for 24 hrs by CLSI protocol based broth microdilution method. Conditions: ATCC 25923, 24 h. In kind it is functional.
Series [9] has as its system Staphylococcus aureus. Put plainly: Bactericidal activity against Staphylococcus aureus ATCC 25923 assessed as 3 log reduction in number of colony forming units incubated for 24 hrs followed by aliquots transfer to tryptic soy agar and grown for 24 hrs. The class given is functional. Conditions: ATCC 25923, 24 h.
In series [10] the test system is Escherichia coli. In words: Antibacterial activity against Escherichia coli ATCC 25922 incubated for 24 hrs by CLSI protocol based broth microdilution method. Conditions: ATCC 25922, 24 h. The class given is functional.
Series [11] deals with Bacillus pumilus. In words: Antibacterial activity against Bacillus pumilus CMCC63202 incubated for 24 hrs by CLSI protocol based broth microdilution method. The note with it: CMCC63202, 24 h. In kind it is functional.
Series [12] deals with Staphylococcus aureus. In words: Ratio of MBC for Staphylococcus aureus ATCC 25923 to MIC for Staphylococcus aureus ATCC 25923. In kind it is functional.
The test system of series [13] is Staphylococcus aureus. In words: Antibacterial activity against Staphylococcus aureus clinical isolate incubated for 24 hrs by CLSI protocol based broth microdilution method. The class given is functional.
Series [14] in a line: Stability in mouse plasma assessed as degradation of compound at 25 ug/ml incubated for 24 hrs by RP-HPLC analysis. In kind it is ADME, cell-free.
The nature of series [15]: Clearance in mouse liver microsomes incubated for 20 mins in presence of NADPH by RP-HPLC analysis. The class given is ADME, Microsome.
Series [16] can be described thus: Half life in mouse liver microsomes in presence of NADPH by RP-HPLC analysis. In kind it is ADME, Microsome. (Microsomes from liver hold many membrane-bound enzymes, among them those of drug oxidation.)
In series [17] the target is T1, Cell division protein FtsZ (Bacillus subtilis (strain 168)) (UniProt P17865).
T1 sequence (whole entry): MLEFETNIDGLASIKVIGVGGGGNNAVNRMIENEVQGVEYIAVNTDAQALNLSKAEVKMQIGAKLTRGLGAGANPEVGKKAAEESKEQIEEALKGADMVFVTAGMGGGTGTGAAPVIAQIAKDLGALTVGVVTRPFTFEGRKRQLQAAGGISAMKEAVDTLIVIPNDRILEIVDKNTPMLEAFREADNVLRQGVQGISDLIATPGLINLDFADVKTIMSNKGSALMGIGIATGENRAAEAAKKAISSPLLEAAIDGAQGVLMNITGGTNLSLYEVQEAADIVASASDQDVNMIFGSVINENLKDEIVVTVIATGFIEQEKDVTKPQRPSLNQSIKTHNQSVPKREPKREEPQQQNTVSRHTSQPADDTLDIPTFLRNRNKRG
In words: Induction of Bacillus subtilis FtsZ polymerization in presence of GTP at 5 ug/ml measured over 30 mins by microtiter plate-based light-scattering assay.

Series [18] can be described thus: Half life in mouse plasma at 25 ug/ml incubated for 24 hrs by RP-HPLC analysis. In kind it is ADME, cell-free.
For series [19], the system named is HeLa. Put plainly: Growth inhibition of human HeLa cells incubated for 48 hrs by MTT assay. The class given is cell-based. (Tetrazolium assays rely on reduction of a dye to a coloured formazan, in cell work by metabolically active cells.)
Series [20] concerns Bacillus pumilus. In words: Effect on bacterial cell morphology in Bacillus pumilus CMCC63202 assessed as increase in bacterial cell length at 0.5 times MIC incubated for 18 hrs by phase-contrast optical microscopic analysis. The class given is functional, organism-based.
The target of series [21] is T1, Cell division protein FtsZ (Bacillus subtilis (strain 168)). In words: Induction of Bacillus subtilis FtsZ polymerization in presence of GTP measured over 30 mins by microtiter plate-based light-scattering assay.
Series [22] relates to Staphylococcus aureus. In words: Bactericidal activity against methicillin-resistant Staphylococcus aureus ATCC 43300 assessed as log reduction in viable bacterial count at 1 to 8 times MIC incubated for 24 hrs by time-kill curve assay. In kind it is functional.
The test system of series [23] is Staphylococcus aureus. In words: Bactericidal activity against methicillin-resistant Staphylococcus aureus ATCC 43300 assessed as log reduction in viable bacterial count at 4 ug/ml incubated for 24 hrs by time-kill curve assay. In kind it is functional.

What is called MIC is the lowest concentration that inhibits growth of the organism. The MBC is the smallest concentration meeting the test's criterion for killing. As a reminder, the half-life is the time in which the quantity being followed falls by half. The IC50 is the concentration needed to halve the response being measured.

Converted amounts (≈) assume the structure as drawn. The source made the active and inactive calls.

Regarding `NC(=O)c1c(F)ccc(OCc2nc3cc(Cl)cnc3s2)c1F`, the minimum inhibitory concentration (MIC) in series [1] is 0.5 µg/mL (≈ 1.41 µM); in series [4], 1 µg/mL (≈ 2.81 µM); in series [6], more than 64 µg/mL; in [7] it was 1 µg/mL (≈ 2.81 µM); in series [8], 1 µg/mL (≈ 2.81 µM); in [10], more than 64 µg/mL. The MIC in series [11] and in series [13] was 0.5 µg/mL (≈ 1.41 µM) each time. Besides, the MBC in [2], in series [5] and in [9] was 1 µg/mL (≈ 2.81 µM) throughout. Further, the Activity in [3] was determined as 4 log10CFU/ml. The Ratio in [12] amounted to 1.

In the case of `NC(=O)c1c(F)ccc(OCc2nn(-c3ccc(Br)cc3)c(=O)[nH]2)c1F`, the MIC in series [1], in [4], in series [6], in series [7], in series [8] and in [10] was more than 64 µg/mL in each case. This molecule had an MIC in [11] of more than 64 µg/mL. Besides, in [14], the Stability result is “Stable”. In addition, in [15], the CLH is on record as 24.3%. For the same molecule, the half-life in series [16] is more than 1.5 h. Further, the outcome in [17] was inactive.

On to `CN[C@H](CC(C)C)C(=O)N[C@H]1C(=O)N[C@@H](CC(N)=O)C(=O)N[C@H]2C(=O)N[C@H]3C(=O)N[C@H](C(=O)N[C@H](C(=O)O)c4cc(O)cc(O)c4-c4cc3ccc4O)[C@H](O)c3ccc(c(Cl)c3)Oc3cc2cc(c3O[C@@H]2O[C@H](CO)[C@@H](O)[C@H](O)[C@H]2O[C@H]2C[C@](C)(N)[C@H](O)[C@H](C)O2)Oc2ccc(cc2Cl)[C@H]1O` [VANCOMYCIN], for which the results for the minimum bactericidal concentration (MBC) in [2], in series [5] and in [9] were 1 µg/mL (≈ 0.69 µM), 1 µg/mL (≈ 0.69 µM) and 2 µg/mL (≈ 1.38 µM), respectively. The Activity in series [3] was 4 log10CFU/ml.

As to `NC(=O)c1c(F)ccc(OCc2nn(-c3ccc(Br)cc3)c(=O)o2)c1F`, the MIC is 0.125 µg/mL (≈ 0.293 µM) in series [1]; 1 µg/mL (≈ 2.35 µM) in [4]; more than 64 µg/mL in series [6]; 1 µg/mL (≈ 2.35 µM) in [7]; 1 µg/mL (≈ 2.35 µM) in [8]; more than 64 µg/mL in series [10]. The MIC in series [11] came to 1 µg/mL (≈ 2.35 µM); in series [13], 0.5 µg/mL (≈ 1.17 µM). In addition, the MBC in series [2], in series [5] and in series [9] was 1 µg/mL (≈ 2.35 µM) in each case. The Stability result in series [14] was “Unstable”. The CLH in series [15] was determined as 24.3%. This molecule gave a half-life at 25 ug/ml in series [18] of 2.5 h. Further, the 50% inhibitory concentration (IC50) in series [19] was more than 64 µg/mL. Also, in series [20], the result was Active. In addition, the half-life in series [16] was more than 1.5 h. The Activity entry was “Dose-dependent effect” in series [21] and 4 log10CFU/ml in [22]. Besides, the Ratio in [12] came out at 1.

On to `CC(=O)NC[C@H]1CN(c2ccc(N3CCOCC3)c(F)c2)C(=O)O1` [LINEZOLID], for which the MIC in [1] was 0.5 µg/mL (≈ 1.48 µM); in series [6] it was more than 64 µg/mL; in [10], more than 64 µg/mL; in series [11], 2 µg/mL (≈ 5.93 µM); in [13] it was 1 µg/mL (≈ 2.96 µM). Also, the MBC in series [2], in series [5] and in [9] was more than 64 µg/mL each time. Moreover, the Activity in series [23] is on record as 1 log10CFU/ml. The outcome in [17] was inactive.

Source of the values: ChEMBL document CHEMBL4387753 (Bioorg Med Chem, 2019).
